Where “and” joins values, the source holds several entries; their conditions need not be identical. Identical values can stand only once. Toxic doses and inconclusive results are not listed.

The test system of the assay is L1210 leukemia ip in BDF1 mice, survival T/C. Nature of the assay: NCI In Vivo Anticancer Drug Screen. Data for tumor model L1210 Leukemia (intraperitoneal) in B6D2F1 (BDF1) mice. To be noted: endpoint: mean survival time, higher = longer survival. An outline of the steps: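 Read-out is survival time, reported as the treated-group measurement over the vehicle-control measurement.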

Setting [1] is: dose: 50.0 mg/kg/injection, schedule: Q01DX001 (ip), vehicle: saline.
Where [2] appears, read: dose: 100.0 mg/kg/injection, schedule: Q01DX001 (ip), vehicle: saline.
Setting [3] is: dose: 200.0 mg/kg/injection, schedule: Q01DX001 (ip), vehicle: saline.
[4] abbreviates: dose: 400.0 mg/kg/injection, schedule: Q01DX001 (ip), vehicle: saline.
Setting [5] is: dose: 100.0 mg/kg/injection, schedule: Q04DX002 (ip), vehicle: Klucel (hydroxypropylcellulose) (HPC).
Where [6] appears, read: dose: 200.0 mg/kg/injection, schedule: Q04DX002 (ip), vehicle: Klucel (hydroxypropylcellulose) (HPC).
[7] abbreviates: dose: 400.0 mg/kg/injection, schedule: Q04DX002 (ip), vehicle: Klucel (hydroxypropylcellulose) (HPC).
The mark [8] stands for this setting: dose: 100.0 mg/kg/injection, schedule: Q01DX009 (ip), vehicle: saline with Tween-80.
The mark [9] stands for this setting: dose: 100.0 mg/kg/injection, schedule: Q04DX002 (ip), vehicle: saline with Tween-80.
Setting [10] is: dose: 100.0 mg/kg/injection, schedule: Q04DX003 (ip), vehicle: Klucel (hydroxypropylcellulose) (HPC).
[11] abbreviates: dose: 200.0 mg/kg/injection, schedule: Q04DX003 (ip), vehicle: Klucel (hydroxypropylcellulose) (HPC).
Where [12] appears, read: dose: 400.0 mg/kg/injection, schedule: Q04DX003 (ip), vehicle: Klucel (hydroxypropylcellulose) (HPC).

As to `CCOC(=O)C1CN(C(C)(C)C)C(=O)C1=O` (stereo not drawn), the T/C under setting [1] was 106 % of control, the T/C under setting [2] was 102 % of control, the T/C under setting [3] is 108 % of control and the T/C under setting [4] is 100 % of control.
`NC(CSS(=O)(=O)O)=NCCCc1nc2ccccc2[nH]1`: the T/C is, setting by setting: under setting [5], 106 % of control; under setting [6], 92 % of control; under setting [7], 95 % of control.
For `CCN(CC)CC(=O)NCC(CCN(C)C)(CCN(C)C)c1cccc2ccccc12`, the T/C was 115 % of control (dose: 25.0 mg/kg/injection, schedule: Q04DX002 (ip), vehicle: saline with Tween-80); 96 % of control (dose: 50.0 mg/kg/injection, schedule: Q04DX002 (ip), vehicle: saline with Tween-80); 93 % of control under setting [8]; 107 % of control under setting [9].
Consider `Cc1ccc(S/C=C/Sc2ccc(C)cc2)cc1`, for which the T/C under setting [5] is 99 % of control, the T/C under setting [6] is 99 % of control and the T/C under setting [7] is 99 % of control.
Consider `C=CCc1cc(Nc2c3ccc(Cl)cc3nc3ccc(OC)cc23)cc(CN(CC)CC)c1O`, for which the T/C (dose: 50.0 mg/kg/injection, schedule: Q04DX002 (ip), vehicle: saline) is 106 % of control; the T/C (dose: 100.0 mg/kg/injection, schedule: Q04DX002 (ip), vehicle: saline) was 98 % of control; the T/C (dose: 200.0 mg/kg/injection, schedule: Q04DX002 (ip), vehicle: saline) is 98 % of control.
Take `OCC1OCOC2COCOC12` (stereo not drawn): the T/C is 94 % of control under setting [8]; 98 % of control (dose: 200.0 mg/kg/injection, schedule: Q01DX009 (ip), vehicle: saline with Tween-80); 104 % of control (dose: 400.0 mg/kg/injection, schedule: Q01DX009 (ip), vehicle: saline with Tween-80).
`CC[CH2][Ge]([CH2]CC)([CH2]CC)[O][Ge]([CH2]CC)([CH2]CC)[CH2]CC`: the T/C runs as follows: (dose: 50.0 mg/kg/injection, schedule: Q01DX001 (ip), vehicle: carboxymethylcellulose (CMC)) 96 % of control; under setting [1], 95 % of control; (dose: 100.0 mg/kg/injection, schedule: Q01DX001 (ip), vehicle: carboxymethylcellulose (CMC)) 100 % of control; under setting [2], 101 % of control; (dose: 200.0 mg/kg/injection, schedule: Q01DX001 (ip), vehicle: carboxymethylcellulose (CMC)) 100 % of control; under setting [3], 104 % of control. For the same molecule, under “dose: 400.0 mg/kg/injection, schedule: Q01DX001 (ip), vehicle: carboxymethylcellulose (CMC)”, the T/C is 105 % of control.
On to `COc1ccc(C)cc1NC(=O)OCCSc1ccc(Cl)cc1`, for which the T/C by setting is: (dose: 50.0 mg/kg/injection, schedule: Q01DX009 (ip), vehicle: gum acacia) 97 % of control and 102 % of control; (dose: 100.0 mg/kg/injection, schedule: Q01DX001 (ip), vehicle: gum acacia) 95 % of control and 97 % of control; (dose: 100.0 mg/kg/injection, schedule: Q04DX002 (ip), vehicle: gum acacia) 97 % of control and 91 % of control; (dose: 100.0 mg/kg/injection, schedule: Q04DX003 (ip), vehicle: gum acacia) 96 % of control and 97 % of control; (dose: 200.0 mg/kg/injection, schedule: Q01DX001 (ip), vehicle: gum acacia) 95 % of control and 100 % of control; (dose: 200.0 mg/kg/injection, schedule: Q04DX002 (ip), vehicle: gum acacia) 93 % of control. The T/C is, setting by setting: (dose: 200.0 mg/kg/injection, schedule: Q04DX003 (ip), vehicle: gum acacia) 92 % of control and 96 % of control; (dose: 400.0 mg/kg/injection, schedule: Q01DX001 (ip), vehicle: gum acacia) 94 % of control and 97 % of control; (dose: 400.0 mg/kg/injection, schedule: Q01DX009 (ip), vehicle: gum acacia) 88 % of control and 90 % of control; (dose: 400.0 mg/kg/injection, schedule: Q04DX002 (ip), vehicle: gum acacia) 98 % of control and 90 % of control; (dose: 400.0 mg/kg/injection, schedule: Q04DX003 (ip), vehicle: gum acacia) 100 % of control and 101 % of control.
In the case of `COP(=O)(NC(C)=O)OC`, the T/C runs as follows: under setting [9], 108 % of control; (dose: 200.0 mg/kg/injection, schedule: Q04DX002 (ip), vehicle: saline with Tween-80) 102 % of control; (dose: 400.0 mg/kg/injection, schedule: Q04DX002 (ip), vehicle: saline with Tween-80) 150 % of control.
As to `CC(C)(C)c1cc(C(=S)N2CCN(C(=S)c3cc(C(C)(C)C)c(O)c(C(C)(C)C)c3)CC2)cc(C(C)(C)C)c1O`, the T/C is, setting by setting: under setting [10], 97 % of control; under setting [11], 94 % of control; under setting [12], 96 % of control.
As to `S=C([S][Sn]([c]1ccccc1)([c]1ccccc1)[c]1ccccc1)N1CCCCC1`, the T/C is, setting by setting: under setting [10], 100 % of control; under setting [11], 94 % of control; under setting [12], 94 % of control.
`CCC[CH2][Ge]([Cl])([Cl])[CH2]CCC`: the T/C reads like this: (dose: 25.0 mg/kg/injection, schedule: Q01DX009 (ip), vehicle: Klucel (hydroxypropylcellulose) (HPC)) 89 % of control; (dose: 25.0 mg/kg/injection, schedule: Q04DX003 (ip), vehicle: Klucel (hydroxypropylcellulose) (HPC)) 93 % of control; (dose: 50.0 mg/kg/injection, schedule: Q01DX009 (ip), vehicle: Klucel (hydroxypropylcellulose) (HPC)) 94 % of control; (dose: 50.0 mg/kg/injection, schedule: Q04DX003 (ip), vehicle: Klucel (hydroxypropylcellulose) (HPC)) 96 % of control; under setting [10], 106 % of control.
On to `Cc1cc(NC(C)C)c(C)cc1NC(C)C`, for which the T/C was 93 % of control (dose: 12.5 mg/kg/injection, schedule: Q04DX002 (ip), vehicle: Klucel (hydroxypropylcellulose) (HPC)) and 96 % of control (dose: 25.0 mg/kg/injection, schedule: Q04DX002 (ip), vehicle: Klucel (hydroxypropylcellulose) (HPC)).
Turning to `CCCC(C)C(=O)Nc1cccc(OC(=O)NC(C)C)c1` (stereo not drawn), the T/C reads like this: (dose: 100.0 mg/kg/injection, schedule: Q04DX003 (ip), vehicle: saline with Tween-80) 89 % of control; (dose: 200.0 mg/kg/injection, schedule: Q04DX003 (ip), vehicle: saline with Tween-80) 87 % of control; (dose: 400.0 mg/kg/injection, schedule: Q04DX003 (ip), vehicle: saline with Tween-80) 92 % of control.
For the molecule `CCCCCCCCCCCCCCCCCC(=O)OCCOCCOCCOCCOCCOCCOCCOCCOCCO`, the T/C is 100 % of control under setting [2], 94 % of control under setting [3] and 97 % of control under setting [4].
Take `O=C(O)c1cc([N+](=O)[O-])ccc1F`: the T/C (dose: 75.0 mg/kg/injection, schedule: Q01DX001 (ip), vehicle: acetone) was 95 % of control and the T/C (dose: 150.0 mg/kg/injection, schedule: Q01DX001 (ip), vehicle: acetone) was 103 % of control.
As for `CC(C)(CN=Cc1ccccc1[O-])N=Cc1ccccc1[O-].[O]=[V]`, the T/C (dose: 50.0 mg/kg/injection, schedule: Q01DX009 (ip), vehicle: saline with Tween-80) was 98 % of control.
In the case of `CC(=O)/C(=C\c1ccc(Cl)c(Cl)c1)C(=O)c1ccccc1`, the T/C by setting is: (dose: 100.0 mg/kg/injection, schedule: Q01DX009 (ip), vehicle: other) 97 % of control; (dose: 100.0 mg/kg/injection, schedule: Q04DX003 (ip), vehicle: other) 95 % of control; (dose: 200.0 mg/kg/injection, schedule: Q01DX009 (ip), vehicle: other) 103 % of control; (dose: 200.0 mg/kg/injection, schedule: Q04DX003 (ip), vehicle: other) 91 % of control; (dose: 400.0 mg/kg/injection, schedule: Q04DX003 (ip), vehicle: other) 93 % of control.

Values taken from PubChem BioAssay AID248 (DTP/NCI, 2004).
